Data taken from patent CN102066974A, “用于蛋白、肽和其他分子的f-18标记的改进方法和组合物” (Immunomedics Inc, priority 2008, dated 2011).
Values joined by “and” are separate entries in the source; they are usually repeats but may differ in a detail not shown here. Equal entries are not always repeated. Numbered stars: 1 amine (or outer) side, 2 acyl side, 3 side chain; on linkers, the order of the positions; unused ones are H or OH. Square brackets hold non-standard residues; d marks the D form. Side chains are listed from the residue outwards. Peptide text beside a SMILES is read from it. * marks the point of attachment. NOTA(2S-Bn(4-NHCS)) = O=C(O)CN1CCN(CC(=O)O)C[C@H](Cc2ccc(NC(=S)*)cc2)N(CC(=O)O)CC1; X1 = O=C(O)CN1CCN(CC(=O)O)CC(Cc2ccc(NC(=S)*)cc2)N(CC(=O)O)CC1; DOTA = O=C(O)CN1CCN(CC(=O)O)CCN(CC(=O)*)CCN(CC(=O)O)CC1; DTPA = O=C(O)CN(CCN(CC(=O)O)CC(=O)O)CCN(CC(=O)O)CC(=O)*; NH(2-(imidazol-4-yl)ethyl) = c1ncc(CCN*)[nH]1; NOTA = O=C(O)CN1CCN(CC(=O)O)CCN(CC(=O)*)CC1; X2 = N[C@H](CC(=O)*)c1ccccc1Br; Suc = O=C(CCC(=O)[*:2])[*:1]; Dap = NC[C@H](N)C(=O)O; Aoc = NCCCCCCCC(=O)O

Tests used:
[1] = system: LS174T肿瘤; test: TF2-pretargeted biodistribution in BALB/c nude mice with s.c. LS174T tumours (Example 27)
[2] = system: LS174T肿瘤; test: PET/CT image quantification (region of interest ratios); conditions: mouse, in vivo
[3] = system: AR42J肿瘤; test: Biodistribution in BALB/c nude mice with s.c. AR42J tumours; format: in vivo, mouse; conditions: 2 h p.i.
[4] = system: LS174 T异种移植物; test: Biodistribution of 111In-IMP 449 and [Al18F]IMP 449 with or without TF2 in nude mice with sc LS174T xenografts; format: in vivo, mouse; conditions: 1 h after peptide
[5] = Stability of Al18F-peptide complex in water (peptide labelling screen); format: physicochemical
[6] = system: PC-3细胞; format: binding; conditions: first experiment, inhibitor 56 to 0.44 nM
[7] = Biodistribution of unbound 18F fraction and purified [Al18F]IMP 449 in SCID mice, no pretargeting; format: in vivo, mouse; conditions: 1 h p.i., no bsMAb
[8] = system: CaPan1异种移植物; test: TF10-pretargeted biodistribution in nude mice with CaPan1 xenografts; format: in vivo, mouse; conditions: 1 h after peptide, TF10 (162μg) pretargeted 18 h before
[9] = Stability of labelled peptide in human serum at 37℃, HPLC; format: in vitro ADME; conditions: for activity still attached to peptide: crude 18F labelling mixture (35% bound at start), pooled human serum 37℃; for 18F-labelled peptide stable in serum: purified 18F-labelled peptide
[10] = biological target: RIIα二聚体 (Homo sapiens, UniProt P13861); conditions: Stokka et al. 2006; cited from earlier work
[11] = system: H1和H2组胺受体; test: In vitro study on cell lines bearing H1 and H2 histamine receptors; format: cell-based
[12] = in vivo

Chain of RIIα二聚体 (P13861 whole entry): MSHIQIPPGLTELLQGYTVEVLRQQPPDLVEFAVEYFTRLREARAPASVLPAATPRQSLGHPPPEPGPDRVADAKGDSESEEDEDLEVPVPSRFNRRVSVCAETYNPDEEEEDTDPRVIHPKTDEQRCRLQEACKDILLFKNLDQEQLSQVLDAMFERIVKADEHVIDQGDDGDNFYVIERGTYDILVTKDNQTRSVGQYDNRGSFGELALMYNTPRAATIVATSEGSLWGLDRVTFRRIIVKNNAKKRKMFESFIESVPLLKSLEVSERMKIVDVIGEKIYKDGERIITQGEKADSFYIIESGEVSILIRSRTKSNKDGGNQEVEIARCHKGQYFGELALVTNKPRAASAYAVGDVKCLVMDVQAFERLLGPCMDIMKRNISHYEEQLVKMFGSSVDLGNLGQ

In the case of `NC(=O)[C@@H](CCCCNC(=O)CNC(=O)CCC(=O)NCCc1c[nH]cn1)NC(=O)[C@@H](CCC(=O)O)NC(=O)[C@@H](CCCCNC(=O)CNC(=O)CCC(=O)NCCc1c[nH]cn1)NC(=O)[C@@H](Cc1ccc(O)cc1)NC(=O)CN1CCN(CC(=O)O)CCN(CC(=O)O)CCN(CC(=O)O)CC1` [68Ga-IMP 288, metal not drawn] ({DOTA}-[dY][dK]([Gly-Suc-NH(2-(imidazol-4-yl)ethyl)])[dE][dK]([Gly-Suc-NH(2-(imidazol-4-yl)ethyl)])-NH2), the “LS174T tumour uptake without TF2 pretargeting” value ([1]; 1 h p.i.) is reported as 0.20±0.03 %ID/g, the inflamed muscle-blood ratio ([1]; mouse, in vivo) is reported as 5.9±2.9 and the tumour-inflamed muscle ratio ([1]; mouse, in vivo) is reported as 12.5±2.1. For the same compound, the “inflamed muscle-background ratio in PET image” value [2] was 8.9 and the “tumour-inflamed tissue ratio in PET image” value [2] was 5.4.
In the case of `C[C@@H](O)[C@@H]1NC(=O)[C@H](CCCCN)NC(=O)[C@@H](Cc2c[nH]c3ccccc23)NC(=O)[C@H](Cc2ccccc2)NC(=O)[C@@H](NC(=O)[C@@H](Cc2ccccc2)NC(=O)CN2CCN(CC(=O)O)CCN(CC(=O)O)CC2)CSSC[C@@H](C(=O)N[C@H](CO)[C@@H](C)O)NC1=O` [68Ga-IMP 466, metal not drawn], the AR42J tumour uptake [3] is reported as 29.2±0.5 %ID/g, the kidney retention [3] is reported as 16.2±2.86 %ID/g and the lung uptake [3] is reported as 4.0±0.9 %ID/g.
With `NC(=O)[C@@H](CCCCNC(=O)CNC(=O)CCC(=O)NCCc1c[nH]cn1)NC(=O)[C@@H](CCC(=O)O)NC(=O)[C@@H](CCCCNC(=O)CNC(=O)CCC(=O)NCCc1c[nH]cn1)NC(=O)[C@@H](Cc1ccc(O)cc1)NC(=O)CN1CCN(CC(=O)O)CCN(CC(=O)O)CCN(CC(=O)O)CC1` [111In-IMP 288, metal not drawn] ({DOTA}-[dY][dK]([Gly-Suc-NH(2-(imidazol-4-yl)ethyl)])[dE][dK]([Gly-Suc-NH(2-(imidazol-4-yl)ethyl)])-NH2) the kidney uptake ([1]; 0.1 nmol peptide, independent of bsMAb dose) was 2 %ID/g.
In the case of `C[C@@H](NC(=S)Nc1ccc(CC2CN(CC(=O)O)CCN(CC(=O)O)CCN2CC(=O)O)cc1)C(=O)N[C@H](CCCCNC(=O)CNC(=O)CCC(=O)NCCc1c[nH]cn1)C(=O)N[C@H](Cc1ccc(O)cc1)C(=O)N[C@H](CCCCNC(=O)CNC(=O)CCC(=O)NCCc1c[nH]cn1)C(N)=O` (stereo partly drawn) [111In-IMP 449, metal not drawn] (X1-[dA][dK]([Gly-Suc-NH(2-(imidazol-4-yl)ethyl)])[dY][dK]([Gly-Suc-NH(2-(imidazol-4-yl)ethyl)])-NH2), the “大肠 (large intestine) uptake, individual animals” value ([4]; no pretargeting antibody) is reported as 0.253 %ID/g, the “大肠 (large intestine) uptake, mean” value ([4]; no pretargeting antibody) is reported as 0.237 %ID/g and the “胃 (stomach) uptake, individual animals” value ([4]; no pretargeting antibody) is reported as 0.329 %ID/g. For the same compound, the “脑 (brain) uptake, individual animals” value ([4]; no pretargeting antibody) was 0.197 %ID/g.
In the case of `C[C@@H](O)[C@@H]1NC(=O)[C@H](CCCCN)NC(=O)[C@@H](Cc2c[nH]c3ccccc23)NC(=O)[C@H](Cc2ccccc2)NC(=O)[C@@H](NC(=O)[C@@H](Cc2ccccc2)NC(=O)CN2CCN(CC(=O)O)CCN(CC(=O)O)CC2)CSSC[C@@H](C(=O)N[C@H](CO)[C@@H](C)O)NC1=O` [Al18F-IMP 466], the AR42J tumour uptake [3] is reported as 28.3±5.7 %ID/g, the blood level [3] is reported as 0.10±0.07 %ID/g and the bone uptake [3] is reported as 0.33±0.07 %ID/g. For the same compound, the kidney retention [3] was 9.96±1.27 %ID/g, the lung uptake [3] was 1.9±0.4 %ID/g and the tumour-blood ratio [3] was 299±88. The “AR42J tumour uptake with excess unlabelled IMP 466” value ([3]; receptor blocking) was 8.6±0.7 %ID/g.
With `C[C@@H](NC(=O)[C@H](CNC(=O)C[C@@H](N)c1ccccc1Br)NC(=O)CN(CCN(CCN(CC(=O)O)CC(=O)O)CC(=O)O)CC(=O)O)C(=O)N[C@H](CCCCNC(=O)CNC(=O)CCC(=O)NCCc1c[nH]cn1)C(=O)N[C@H](C)C(=O)N[C@H](CCCCNC(=O)CNC(=O)CCC(=O)NCCc1c[nH]cn1)C(N)=O` [IMP 375, DTPA-Dpr(2-Br-Phe-CHNH2-CH2-CO-)-D-Ala-D-Lys(HSG)-D-Ala-D-Lys(HSG)-NH2] ({DTPA}-[Dap](X2)[dA][dK]([Gly-Suc-NH(2-(imidazol-4-yl)ethyl)])[dA][dK]([Gly-Suc-NH(2-(imidazol-4-yl)ethyl)])-NH2) the “stability of Al18F complex relative to IMP 272” value [5] was “显著更稳定”.
In the case of `CSCC[C@H](NC(=O)[C@H](CC(C)C)NC(=O)[C@H](Cc1c[nH]cn1)NC(=O)CNC(=O)[C@@H](NC(=O)[C@H](C)NC(=O)[C@H](Cc1c[nH]c2ccccc12)NC(=O)[C@@H](NC(=O)[C@H](Cc1c[nH]c2ccccc12)NC(=O)[C@H](CCC(N)=O)NC(=O)CCCCCCCNC(=O)CN1CCN(CC(=O)O)CCN(CC(=O)O)CC1)C(C)C)C(C)C)C(N)=O` [IMP 468] ({NOTA-Aoc}-QWVWAVGHLM-NH2), the “blocking of 125I-BBN binding” value [6] is reported as “阻断125I-BBN的结合”.
For `C[C@@H](NC(=S)Nc1ccc(C[C@H]2CN(CC(=O)O)CCN(CC(=O)O)CCN2CC(=O)O)cc1)C(=O)N[C@H](CCCCNC(=O)CNC(=O)CCC(=O)NCCc1c[nH]cn1)C(=O)N[C@H](Cc1ccc(O)cc1)C(=O)N[C@H](CCCCNC(=O)CNC(=O)CCC(=O)NCCc1c[nH]cn1)C(N)=O` [[Al18F]IMP 449] ({NOTA(2S-Bn(4-NHCS))}-[dA][dK]([Gly-Suc-NH(2-(imidazol-4-yl)ethyl)])[dY][dK]([Gly-Suc-NH(2-(imidazol-4-yl)ethyl)])-NH2), the “大肠 (large intestine) uptake, individual animals” value [7] was 0.167 %ID/g and 0.091 %ID/g and 0.094 %ID/g and 0.109 %ID/g, the “大肠 (large intestine) uptake, mean” value [7] was 0.115 %ID/g and the “小肠 (small intestine) uptake, individual animals” value [7] was 1.124 %ID/g and 1.247 %ID/g and 1.166 %ID/g and 1.624 %ID/g. The “小肠 (small intestine) uptake, mean” value [7] was 1.290 %ID/g, the “肌肉 (muscle) uptake, individual animals” value [7] was 0.077 %ID/g and 0.075 %ID/g and the “脊骨 (spine) uptake, individual animals” value [7] was 0.268 %ID/g. For the same compound, the CaPan1 tumour uptake [8] was 4.6±0.9 %ID/g, the “小肠 (small intestine) uptake, individual animals” value ([4]; TF2 163.2μg 16 h before) was 0.185 %ID/g and the “肌肉 (muscle) uptake, individual animals” value ([4]; TF2 163.2μg 16 h before) was 0.064 %ID/g. The “肝 (liver) uptake, individual animals” value ([4]; TF2 163.2μg 16 h before) was 0.196 %ID/g and 0.180 %ID/g, the “肝 (liver) uptake, mean” value ([4]; TF2 163.2μg 16 h before) was 0.172 %ID/g and the “股骨 (femur) uptake, mean” value ([4]; TF2 163.2μg 16 h before) was 0.625 %ID/g. The “肺 (lung) uptake, individual animals” value ([4]; TF2 163.2μg 16 h before) was 0.474 %ID/g and 0.230 %ID/g, the “胃 (stomach) uptake, mean” value ([4]; TF2 163.2μg 16 h before) was 0.218 %ID/g and the “脾 (spleen) uptake, individual animals” value ([4]; TF2 163.2μg 16 h before) was 0.239 %ID/g and 0.118 %ID/g and 0.140 %ID/g. The “大肠 (large intestine) uptake, individual animals” value ([4]; no pretargeting antibody) was 0.118 %ID/g, the “大肠 (large intestine) uptake, mean” value ([4]; no pretargeting antibody) was 0.072 %ID/g and the “肝 (liver) uptake, individual animals” value ([4]; no pretargeting antibody) was 0.141 %ID/g (2×) and 0.200 %ID/g and 0.185 %ID/g. The “股骨 (femur) uptake, individual animals” value ([4]; no pretargeting antibody) was 0.080 %ID/g, the “股骨 (femur) uptake, mean” value ([4]; no pretargeting antibody) was 0.100 %ID/g and the “脑 (brain) uptake, individual animals” value ([4]; no pretargeting antibody) was 0.077 %ID/g. For the same compound, the “脾 (spleen) uptake, mean” value ([4]; no pretargeting antibody) was 0.118 %ID/g, the LS174T tumour uptake ([1]; 6.0 nmol TF2 16 h before, 0.25 nmol peptide) was 10.6±1.7 %ID/g and the bone uptake ([1]; mouse, in vivo) was 0.54±0.2 %ID/g.
With “C-NETA-琥珀酰-D-Lys(HSG)-D-Tyr-D-Lys(HSG)-NH2 [IMP 467]” the “decomposition of 18F-labelled peptide in serum” value ([9]; HLB-purified, human serum 37℃, 5 h) was “没有可检测的分解”.
For DLIEEAASRIVDAVIEQVKAAGAY [Ht-31], the PKA isoform preference [10] is given as “对PKA的RII同种型更大的亲和力”.
For “DOTA-D-Tyr-D-Lys(HSG)-D-Glu-D-Lys(HSG)-NH2 [IMP 288]”, the “antagonist or agonist activity at histamine receptors” value [11] was “没有拮抗或激动活性” and the “histamine-related pharmacological activity in animals” value [12] was “没有与组胺组分相关的肽的药理活性”.
In the case of “DTPA-Dpr(DTPA)-D-Ala-D-Lys(HSG)-D-Ala-D-Lys(HSG)-NH2 [IMP 333]”, the “blocking of 125I-BBN binding” value [6] is reported as “不能”.
For FEELAWKIAKMIWSDVFQQC [PV-38], the PKA isoform preference [10] is given as “对RI更大的亲和力”.
In the case of LEQYANQLADQIIKEATE [RIAD], the PKA isoform preference [10] is given as “对RI更大的亲和力”.
With “NOTA-ITC苄基-D-Ala-D-Lys(HSG)-D-Tyr-D-Lys(HSG)-NH2 [IMP 449]” the “activity still attached to peptide” value ([9]; 15 min) was 9.8 %, the “activity still attached to peptide” value ([9]; 1 h) was 7.6 % and the “decomposition of metal-18F-peptide complex” value ([9]; prepared with ascorbic acid as stabiliser, serum 37℃, 4 h) was “没有可检测的分解”. The “18F-labelled peptide stable in serum” value ([9]; human serum 37℃, at least 1 h) was 91 % and the “18F-labelled peptide stable in serum” value ([9]; human serum 37℃, at least 4 h) was 76 %.
